Literature values in patent US20090053307A1, “IMMEDIATE-RELEASE T[…] FOR IMPROVED ORAL ABSORPTION OF 7-[(E)]-T-BUTY-LOXYMINOMETHYL] CAMPTOTHECIN” (SIGMA-TAU INDUSTRIE FAR[…] S.P.A., priority 2005, published 2009).

System: large cell pulmonary carcinoma (not SCLC, H-460)
Conditions: H-460 tumour line; from W097/31003

CCC1(O)C(=O)OCc2c1cc1n(c2=O)Cc2c-1nc1ccccc1c2C#N (stereo not shown) [CPT 83]
activity compared with reference compound topotecan: more active than topotecan
